Data on 42 compounds can be found in patent US10639284B2, “Immunomodulator compounds” (CHEMOCENTRYX, INC., priority 2016, dated 2020).

Where only a bound is given, the exact number is not on record here.

A word on the IC50: it is the concentration at which inhibition is half-maximal.

Chain of human PD-L1 / Human PD-1 (Q9NZQ7 19-239): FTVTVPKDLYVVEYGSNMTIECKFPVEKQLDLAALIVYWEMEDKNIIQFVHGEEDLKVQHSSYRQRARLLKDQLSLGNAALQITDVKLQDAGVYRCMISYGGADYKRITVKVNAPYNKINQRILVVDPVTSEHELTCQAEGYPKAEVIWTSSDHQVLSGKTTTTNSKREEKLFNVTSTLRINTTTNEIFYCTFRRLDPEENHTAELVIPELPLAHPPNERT

This assay concerns the target human PD-L1 / Human PD-1 (Homo sapiens (Human), UniProt Q9NZQ7). Briefly: Enzyme-Linked Immunosorbent Assay (ELISA), PD-1/PD-L1 binding. As to conditions: Table 2; plate-coated human PD-L1, biotinylated human PD-1; read-out: ELISA IC50. The method, then: Plates were coated with 1 μg/mL of human PD-L1 (obtained from R&D) in PBS overnight at 4° C. The wells were then blocked with PBS containing 2% BSA in PBS (W/V) with 0.05% TWEEN-20 for 1 hour at 37° C. The plates were washed 3 times with PBS/0.05% TWEEN-20 and the samples were diluted to 1:5 in dilution medium in the ELISA plates. Human PD-1 and biotin 0.3 μg/mL (ACRO Biosystems) were added and incubated for 1 hour at 37° C. then washed 3 times with PBS/0.05% TWEEN-20. A second block was added with PBS containing 2% BSA in PBS (W/V)/0.05% TWEEN-20 for 10 min at 37° C. and was washed 3 times with PBS/0.05% TWEEN-20. Streptavidin-HRP was added for 1 hour at 37° C. then washed 3 times with PBS/0.05% TWEEN-20. TMB substrate was added and reacted for 20 min at 37° C. A stop solution (2 N aqueous H2SO4) was added. The absorbance was read at 450 nm using a micro-plate spectrophotometer.
Compounds in Table 2 and Table 3 were prepared by methods as described in the Examples, and evaluated according to the assay below.
For orientation: In an ELISA, binding on a coated surface is turned into a signal by an enzyme label.
Consider `COc1cc(O[C@H]2CCc3c(-c4cccc(OC)c4F)cccc32)c(Cl)cc1CN1CC(O)C1` [Example 2.041], for which the concentration for half-maximal inhibition (IC50) is 500 to 20000 nM. Take `COc1cc(O[C@H]2CCc3c(-c4ccc5c(c4)OCCO5)cccc32)c(Cl)cc1CN1CC(O)C1` [Example 2.042]: the IC50 lay within 500 to 20000 nM. Regarding `COc1cccc(-c2cccc3c2CC[C@@H]3Oc2cc(OCc3cncc(C#N)c3)c(CN[C@@H](CO)C(=O)O)cc2Cl)c1Cl` [Example 2.043], the concentration for half-maximal inhibition (IC50) is < 100 nM.

Take `COc1ccc(-c2cccc3c2CC[C@@H]3Oc2cc(OCc3cncc(C#N)c3)c(CN[C@@H](CO)C(=O)O)cc2Cl)c(F)c1` [Example 2.044]: the half-inhibitory concentration (IC50) fell in the range of 100 to 500 nM.

For the compound `COc1ccc(F)c(-c2cccc3c2CC[C@@H]3Oc2cc(OCc3cncc(C#N)c3)c(CN[C@@H](CO)C(=O)O)cc2Cl)c1` [Example 2.045], the IC50 was < 100 nM. Take `Cc1cccc(-c2cccc3c2CC[C@@H]3Oc2cc(OCc3cncc(C#N)c3)c(CN[C@@H](CO)C(=O)O)cc2Cl)c1F` [Example 2.046]: the IC50 is < 100 nM. With `COc1cccc(-c2ccc(F)c3c2CCC3Oc2cc(OCc3cncc(C#N)c3)c(CN[C@@H](CO)C(=O)O)cc2Cl)c1F` (stereo partly drawn) [Example 2.047], the half-inhibitory concentration (IC50) was < 100 nM. As for `CCOc1cc(O[C@H]2CCc3c(-c4cccc(OC)c4F)cccc32)c(Cl)cc1CN[C@@H](CO)C(=O)O` [Example 2.048], the IC50 is < 100 nM. In the case of `COc1cccc(-c2cccc3c2CC(C)C3Oc2cc(OCc3cncc(C#N)c3)c(CN[C@@H](CO)C(=O)O)cc2Cl)c1F` (stereo partly drawn) [Example 2.049], the IC50 was 500 to 20000 nM. Consider `N#Cc1cncc(COc2cc(O[C@H]3CCc4c(-c5ccc6c(c5)OCCO6)cccc43)c(Cl)cc2CN2CC(O)C2)c1` [Example 2.050], for which the concentration for half-maximal inhibition (IC50) is < 100 nM. `COc1cccc(-c2cccc3c2CC[C@@H]3Oc2cc(OCc3cncc(C#N)c3)c(CN3CC(O)C3)cc2Cl)c1F` [Example 2.051]: the IC50 is < 100 nM. With `COc1cccc(-c2cccc3c2CC[C@@H]3Oc2cc(OCc3cncc(C#N)c3)c(CN3CCC(O)CC3)cc2Cl)c1F` [Example 2.052], the IC50 lay in the range of 100 to 500 nM. To `COc1cccc(-c2cccc3c2CC[C@@H]3Oc2cc(OCc3cncc(C#N)c3)c(CNCc3n[nH]c(=O)[nH]3)cc2Cl)c1F` [Example 2.053] belongs 100 to 500 nM. To `COc1cccc(-c2cccc3c2CC[C@@H]3Oc2cc(OCc3cncc(C#N)c3)c(CNCc3noc(=O)[nH]3)cc2Cl)c1F` [Example 2.054] belongs 500 to 20000 nM; to `COc1cccc(-c2cccc3c2CC[C@@H]3Oc2cc(OCc3cncc(C#N)c3)c(CN3CCC[C@@H](O)C3)cc2Cl)c1F` [Example 2.055], 100 to 500 nM; to `CCOc1cc(O[C@H]2CCc3c(-c4ccc5c(c4F)OCCO5)cccc32)c(Cl)cc1CN[C@@H](CO)C(=O)O` [Example 2.056], < 100 nM. As to `N#Cc1cncc(COc2cc(O[C@H]3CCc4c(-c5ccc6c(c5F)OCCO6)cccc43)c(Cl)cc2CN[C@@H](CO)C(=O)O)c1` [Example 2.057], the half-inhibitory concentration (IC50) was < 100 nM. Turning to `N#Cc1cncc(COc2cc(O[C@H]3CCc4c(-c5ccc6c(c5F)OCCO6)cccc43)c(Cl)cc2CN2CCC(O)CC2)c1` [Example 2.058], the 50% inhibitory concentration (IC50) is < 100 nM. The value for `CCOc1cc(O[C@H]2CCc3c(-c4ccc5c(c4F)OCCO5)cccc32)c(Cl)cc1CN1CCC(O)CC1` [Example 2.059] was 500 to 20000 nM. Turning to `COc1cccc(-c2cccc3c2CC[C@@H]3Oc2cc(OCc3cncc(C#N)c3)c(CN3CCC[C@H](O)C3)cc2Cl)c1F` [Example 2.060], the concentration for half-maximal inhibition (IC50) was 100 to 500 nM.

Regarding `CCOc1cc(O[C@H]2CCc3c(-c4ccccc4F)cccc32)c(Cl)cc1CN1CCC(O)CC1` [Example 2.061], the IC50 lay within 500 to 20000 nM.

Take `N#Cc1cncc(COc2cc(O[C@H]3CCc4c(-c5cc(C#N)ccc5F)cccc43)c(Cl)cc2CN[C@@H](CO)C(=O)O)c1` [Example 2.062]: the 50% inhibitory concentration (IC50) fell in the range of 500 to 20000 nM. On to `N#Cc1cncc(COc2cc(O[C@H]3CCc4c(-c5ccccc5F)cccc43)c(Cl)cc2CNCP(=O)(O)O)c1` [Example 2.063], for which the IC50 was < 100 nM.

In the case of `COc1cccc(-c2cccc3c2CC[C@@H]3Oc2cc(OCc3cncc(C#N)c3)c(CN3CC(O)C(C(=O)O)C3)cc2Cl)c1F` (stereo partly drawn) [Example 2.064], the IC50 is < 100 nM. In the case of `COc1ccc(Cl)c(-c2cccc3c2CC[C@@H]3Oc2cc(OCc3cncc(C#N)c3)c(CN[C@@H](CO)C(=O)O)cc2Cl)c1` [Example 2.065], the 50% inhibitory concentration (IC50) was < 100 nM. In the case of `COc1cccc(-c2cccc3c2CC[C@@H]3Oc2cc(OCc3cncc(C#N)c3)c(CNCc3ccc(B(O)O)cc3)cc2Cl)c1F` [Example 2.066], the concentration for half-maximal inhibition (IC50) fell in the range of 500 to 20000 nM.

Consider `Cc1ccc(F)c(-c2cccc3c2CC[C@@H]3Oc2cc(OCc3cncc(C#N)c3)c(CN[C@@H](CO)C(=O)O)cc2Cl)c1` [Example 2.067], for which the IC50 was < 100 nM.

As to `Cc1ccc(-c2cccc3c2CC[C@@H]3Oc2cc(OCc3cncc(C#N)c3)c(CN[C@@H](CO)C(=O)O)cc2Cl)c(F)c1` [Example 2.068], the IC50 was in the range of 100 to 500 nM. Take `N#Cc1cncc(COc2cc(O[C@H]3CCc4c(-c5cccc(OC(F)(F)F)c5F)cccc43)c(Cl)cc2CN[C@@H](CO)C(=O)O)c1` [Example 2.069]: the IC50 lay in the range of 500 to 20000 nM.

Take `N#Cc1cncc(COc2cc(O[C@H]3CCc4c(-c5ccc6c(c5F)OCCO6)cccc43)c(Cl)cc2CN2CC(O)C2)c1` [Example 2.070]: the IC50 is < 100 nM.

Turning to `COc1cccc(-c2cccc3c2CC[C@@H]3Oc2cc(OCc3cncc(C#N)c3)c(CN3CCC(O)CC3)cc2Cl)c1Cl` [Example 2.071], the IC50 was 100 to 500 nM. Turning to `COc1cccc(-c2cccc3c2CC[C@@H]3Oc2cc(OCc3cncc(C#N)c3)c(CN3CC(O)C3)cc2Cl)c1Cl` [Example 2.072], the half-inhibitory concentration (IC50) lay within 100 to 500 nM. On to `COc1cccc(-c2cccc3c2CC[C@@H]3Oc2cc(OCc3cncc(C#N)c3)c(CN3C[C@H](O)C[C@@H]3C(=O)O)cc2Cl)c1F` [Example 2.073], for which the IC50 is < 100 nM. Consider `CCCOc1cc(O[C@H]2CCc3c(-c4ccccc4F)cccc32)c(Cl)cc1CN[C@@H](CO)C(=O)O` [Example 2.074], for which the IC50 lay in the range of 100 to 500 nM. As to `CC1(O)CCN(Cc2cc(Cl)c(O[C@H]3CCc4c(-c5ccccc5F)cccc43)cc2OCc2cncc(C#N)c2)CC1` [Example 2.075], the IC50 was 100 to 500 nM. To `Cc1cccc(-c2cccc3c2CC[C@@H]3Oc2cc(OCc3cncc(C#N)c3)c(CN3CC(O)C3)cc2Cl)c1F` [Example 2.076] belongs 100 to 500 nM. On to `COc1ccc(F)c(-c2cccc3c2CC[C@@H]3Oc2cc(OCc3cncc(C#N)c3)c(CN3CC(O)C3)cc2Cl)c1` [Example 2.077], for which the IC50 was 100 to 500 nM. Regarding `COc1cccc(-c2cccc3c2CC[C@@H]3Oc2cc(OCc3cncc(C#N)c3)c(CNCCS(N)(=O)=O)cc2Cl)c1F` [Example 2.078], the IC50 lay within 500 to 20000 nM. As to `COc1ccc(F)c(-c2cccc3c2CC[C@@H]3Oc2cc(OCc3cncc(C#N)c3)c(CN3CCC(O)CC3)cc2Cl)c1` [Example 2.079], the IC50 fell in the range of 100 to 500 nM. For `COc1cccc(-c2cccc3c2CCC3Oc2cc(OCc3cncc(C#N)c3)c(CNCCC(N)=O)cc2Cl)c1F` (stereo not drawn) [Example 2.080], the half-maximal inhibitory concentration (IC50) fell in the range of 100 to 500 nM. For the compound `COc1cccc(-c2cccc3c2CC[C@@H]3Oc2cc(OCc3cncc(C#N)c3)c(CN3CCC(CO)CC3)cc2Cl)c1Cl` [Example 2.081], the IC50 is 100 to 500 nM. `COc1cccc(-c2cccc3c2CC[C@@H]3Oc2cc(OCc3cncc(C#N)c3)c(CN3CCOCC3)cc2Cl)c1Cl` [Example 2.082]: the IC50 fell in the range of 500 to 20000 nM.
